Test results reported in ChEMBL document CHEMBL3046897, “Synthesis of 3-{4-[4-dimethylamino-6-(4-methyl-2-oxo-2H-chromen-7-yloxy)-[1,3,5]triazin-2-ylamino]-phenyl}-2-phenyl-5-(4-pyridin-2-yl-piperazin-1-ylmethyl)-thiazolidin-4-one and their biological evaluation” (2012).
Values after ≈ are worked out from the molar mass of the structure shown.

Tests used:
Format in all cases: functional
Salmonella typhi [1] = assay: Antibacterial activity against Salmonella enterica subsp. enterica serovar Typhi at 100 ug/disk after 24 hr by paper disk diffusion method; settings: read-out: IZ
Salmonella typhi [2] = assay: Antibacterial activity against Salmonella enterica subsp. enterica serovar Typhi after 24 hr by agar streak dilution method
Pseudomonas aeruginosa [3] = assay: Antibacterial activity against Pseudomonas aeruginosa at 100 ug/disk after 24 hr by paper disk diffusion method; settings: read-out: IZ
Aspergillus clavatus [4] = assay: Antifungal activity against Aspergillus clavatus after 48 hr by agar streak dilution method
Proteus vulgaris [5] = assay: Antibacterial activity against Proteus vulgaris at 100 ug/disk after 24 hr by paper disk diffusion method; settings: read-out: IZ
Shigella flexneri [6] = assay: Antibacterial activity against Shigella flexneri after 24 hr by agar streak dilution method
Shigella flexneri [7] = assay: Antibacterial activity against Shigella flexneri at 100 ug/disc after 24 hr by paper disk diffusion method; settings: read-out: IZ
Pseudomonas aeruginosa [8] = assay: Antibacterial activity against Pseudomonas aeruginosa after 24 hr by agar streak dilution method
Aspergillus fumigatus [9] = assay: Antifungal activity against Aspergillus fumigatus at 100 ug/disc after 48 hr by paper disk diffusion method; settings: read-out: IZ
Escherichia coli [10] = assay: Antibacterial activity against Escherichia coli at 100 ug/disk after 24 hr by paper disk diffusion method; settings: read-out: IZ
Aspergillus niger [11] = assay: Antifungal activity against Aspergillus niger after 48 hr by agar streak dilution method
Klebsiella pneumoniae [12] = assay: Antibacterial activity against Klebsiella pneumoniae after 24 hr by agar streak dilution method
Escherichia coli [13] = assay: Antibacterial activity against Escherichia coli after 24 hr by agar streak dilution method
Klebsiella pneumoniae [14] = assay: Antibacterial activity against Klebsiella pneumoniae at 100 ug/disk after 24 hr by paper disk diffusion method; settings: read-out: IZ
Aspergillus niger [15] = assay: Antifungal activity against Aspergillus niger at 100 ug/disk after 48 hr by paper disk diffusion method; settings: read-out: IZ
Proteus vulgaris [16] = assay: Antibacterial activity against Proteus vulgaris after 24 hr by agar streak dilution method
Staphylococcus aureus [17] = assay: Antibacterial activity against Staphylococcus aureus after 24 hr by agar streak dilution method
Candida albicans [18] = assay: Antifungal activity against Candida albicans after 48 hr by agar streak dilution method
Aspergillus fumigatus [19] = assay: Antifungal activity against Aspergillus fumigatus after 48 hr by agar streak dilution method
Aspergillus clavatus [20] = assay: Antifungal activity against Aspergillus clavatus at 100 ug/disc after 48 hr by paper disk diffusion method; settings: read-out: IZ
Bacillus subtilis [21] = assay: Antibacterial activity against Bacillus subtilis after 24 hr by agar streak dilution method
Staphylococcus aureus [22] = assay: Antibacterial activity against Staphylococcus aureus at 100 ug/disc after 24 hr by paper disk diffusion method; settings: read-out: IZ
Bacillus subtilis [23] = assay: Antibacterial activity against Bacillus subtilis at 100 ug/disk after 24 hr by paper disk diffusion method; settings: read-out: IZ
Candida albicans [24] = assay: Antifungal activity against Candida albicans at 100 ug/disk after 48 hr by paper disk diffusion method; settings: read-out: IZ

Structure (SMILES) | zone of inhibition at 100 µg/disc (Salmonella typhi [1]) [mm] | MIC (Salmonella typhi [2]) [µg/mL] | zone of inhibition at 100 µg/disc (Pseudomonas aeruginosa [3]) [mm] | MIC (Aspergillus clavatus [4]) [µg/mL] | zone of inhibition at 100 µg/disc (Proteus vulgaris [5]) [mm] | MIC (Shigella flexneri [6]) [µg/mL] | zone of inhibition at 100 µg/disc (Shigella flexneri [7]) [mm] | MIC (Pseudomonas aeruginosa [8]) [µg/mL] | zone of inhibition at 100 µg/disc (Aspergillus fumigatus [9]) [mm] | zone of inhibition at 100 µg/disc (Escherichia coli [10]) [mm] | MIC (Aspergillus niger [11]) [µg/mL] | MIC (Klebsiella pneumoniae [12]) [µg/mL] | MIC (Escherichia coli [13]) [µg/mL] | zone of inhibition at 100 µg/disc (Klebsiella pneumoniae [14]) [mm] | zone of inhibition at 100 µg/disc (Aspergillus niger [15]) [mm] | MIC (Proteus vulgaris [16]) [µg/mL] | MIC (Staphylococcus aureus [17]) [µg/mL] | MIC (Candida albicans [18]) [µg/mL] | MIC (Aspergillus fumigatus [19]) [µg/mL] | zone of inhibition at 100 µg/disc (Aspergillus clavatus [20]) [mm] | other results
Cc1cc(=O)oc2cc(Oc3nc(Nc4ccc(N5C(=O)CSC5c5ccc([N+](=O)[O-])cc5)cc4)nc(N(C)C)n3)ccc12 (configuration not stated) | 16 | 100 (≈ 163 µM) | 11 | 100 (≈ 163 µM) | < 10 | 100 (≈ 163 µM) | 11 | 100 (≈ 163 µM) | 13 | 13 | 100 (≈ 163 µM) | 100 (≈ 163 µM) | 100 (≈ 163 µM) | 12 | 12 | 100 (≈ 163 µM) | 100 (≈ 163 µM) | 100 (≈ 163 µM) | 100 (≈ 163 µM) | 17 | MIC (Bacillus subtilis [21]): 100 µg/mL (≈ 163 µM); zone of inhibition at 100 µg/disc (Staphylococcus aureus [22]): 13 mm; zone of inhibition at 100 µg/disc (Bacillus subtilis [23]): 11 mm; zone of inhibition at 100 µg/disc (Candida albicans [24]): < 10 mm
Cc1ccc(C2SCC(=O)N2c2ccc(Nc3nc(Oc4ccc5c(C)cc(=O)oc5c4)nc(N(C)C)n3)cc2)cc1 (configuration not stated) | 19 | 25 (≈ 43.1 µM) | 20 | 50 (≈ 86.1 µM) | 14 | 25 (≈ 43.1 µM) | 20 | 50 (≈ 86.1 µM) | 18 | 13 | 25 (≈ 43.1 µM) | 100 (≈ 172 µM) | 100 (≈ 172 µM) | 15 | 20 | 100 (≈ 172 µM) | 50 (≈ 86.1 µM) | 50 (≈ 86.1 µM) | 50 (≈ 86.1 µM) | 19 | MIC (Bacillus subtilis [21]): 25 µg/mL (≈ 43.1 µM); zone of inhibition at 100 µg/disc (Staphylococcus aureus [22]): 18 mm; zone of inhibition at 100 µg/disc (Bacillus subtilis [23]): 19 mm; zone of inhibition at 100 µg/disc (Candida albicans [24]): 20 mm
Cc1cc(=O)oc2cc(Oc3nc(Nc4ccc(N5C(=O)CSC5c5ccc(Cl)c(Cl)c5)cc4)nc(N(C)C)n3)ccc12 (configuration not stated) | 18 | 50 (≈ 78.7 µM) | 19 | 50 (≈ 78.7 µM) | 17 | 50 (≈ 78.7 µM) | 18 | 50 (≈ 78.7 µM) | 15 | 14 | 100 (≈ 157 µM) | 100 (≈ 157 µM) | 100 (≈ 157 µM) | 15 | 12 | 100 (≈ 157 µM) | 100 (≈ 157 µM) | 100 (≈ 157 µM) | 100 (≈ 157 µM) | 18 | MIC (Bacillus subtilis [21]): 50 µg/mL (≈ 78.7 µM); zone of inhibition at 100 µg/disc (Staphylococcus aureus [22]): 16 mm; zone of inhibition at 100 µg/disc (Bacillus subtilis [23]): 18 mm; zone of inhibition at 100 µg/disc (Candida albicans [24]): 13 mm
Cc1cc(=O)oc2cc(Oc3nc(Nc4ccc(/N=C/c5ccc(Cl)cc5)cc4)nc(N(C)C)n3)ccc12 | 19 | 25 (≈ 47.4 µM) | 11 | 50 (≈ 94.9 µM) | 17 | 25 (≈ 47.4 µM) | 21 | 100 (≈ 190 µM) | 16 | 16 | 100 (≈ 190 µM) | 100 (≈ 190 µM) | 100 (≈ 190 µM) | 15 | 12 | 50 (≈ 94.9 µM) | 50 (≈ 94.9 µM) | 50 (≈ 94.9 µM) | 50 (≈ 94.9 µM) | 18 | MIC (Bacillus subtilis [21]): 100 µg/mL (≈ 190 µM); zone of inhibition at 100 µg/disc (Staphylococcus aureus [22]): 17 mm; zone of inhibition at 100 µg/disc (Bacillus subtilis [23]): 14 mm; zone of inhibition at 100 µg/disc (Candida albicans [24]): 18 mm
Cc1cc(=O)oc2cc(Oc3nc(Nc4ccc(N5C(=O)CSC5c5ccccc5Br)cc4)nc(N(C)C)n3)ccc12 (configuration not stated) | 12 | 100 (≈ 155 µM) | 20 | 50 (≈ 77.5 µM) | 16 | 100 (≈ 155 µM) | 10 | 50 (≈ 77.5 µM) | 23 | 17 | 100 (≈ 155 µM) | 100 (≈ 155 µM) | 100 (≈ 155 µM) | 13 | 19 | 50 (≈ 77.5 µM) | 50 (≈ 77.5 µM) | 25 (≈ 38.7 µM) | 25 (≈ 38.7 µM) | 20 | MIC (Bacillus subtilis [21]): 50 µg/mL (≈ 77.5 µM); zone of inhibition at 100 µg/disc (Staphylococcus aureus [22]): 17 mm; zone of inhibition at 100 µg/disc (Bacillus subtilis [23]): 20 mm; zone of inhibition at 100 µg/disc (Candida albicans [24]): 21 mm
Cc1cc(=O)oc2cc(Oc3nc(Nc4ccc(N5C(=O)CSC5c5ccc(F)cc5)cc4)nc(N(C)C)n3)ccc12 (configuration not stated) | 17 | 50 (≈ 85.5 µM) | 22 | 25 (≈ 42.8 µM) | 20 | 50 (≈ 85.5 µM) | 18 | 25 (≈ 42.8 µM) | 18 | 17 | 12.5 (≈ 21.4 µM) | 100 (≈ 171 µM) | 50 (≈ 85.5 µM) | 15 | 25 | 25 (≈ 42.8 µM) | 25 (≈ 42.8 µM) | 12.5 (≈ 21.4 µM) | 50 (≈ 85.5 µM) | 22 | MIC (Bacillus subtilis [21]): 25 µg/mL (≈ 42.8 µM); zone of inhibition at 100 µg/disc (Staphylococcus aureus [22]): 23 mm; zone of inhibition at 100 µg/disc (Bacillus subtilis [23]): 20 mm; zone of inhibition at 100 µg/disc (Candida albicans [24]): 24 mm
Cc1cc(=O)oc2cc(Oc3nc(Nc4ccc(N5C(=O)C(CN6CCN(c7ccccn7)CC6)SC5c5ccccc5C(=O)O)cc4)nc(N(C)C)n3)ccc12 (configuration not stated) | 11 | 100 (≈ 127 µM) | 18 | 100 (≈ 127 µM) | 15 | 100 (≈ 127 µM) | 17 | 50 (≈ 63.6 µM) | 13 | 13 | 100 (≈ 127 µM) | 100 (≈ 127 µM) | 100 (≈ 127 µM) | 15 | 15 | 100 (≈ 127 µM) | 50 (≈ 63.6 µM) | 100 (≈ 127 µM) | 100 (≈ 127 µM) | 15 | MIC (Bacillus subtilis [21]): 50 µg/mL (≈ 63.6 µM); zone of inhibition at 100 µg/disc (Staphylococcus aureus [22]): 19 mm; zone of inhibition at 100 µg/disc (Bacillus subtilis [23]): 17 mm; zone of inhibition at 100 µg/disc (Candida albicans [24]): < 10 mm
Cc1cc(=O)oc2cc(Oc3nc(Nc4ccc(N5C(=O)C(CN6CCN(c7ccccn7)CC6)SC5c5ccc(O)cc5O)cc4)nc(N(C)C)n3)ccc12 (configuration not stated) | 28 | 6.25 (≈ 8.08 µM) | 20 | 12.5 (≈ 16.2 µM) | 22 | 6.25 (≈ 8.08 µM) | 26 | 25 (≈ 32.3 µM) | 23 | 23 | 25 (≈ 32.3 µM) | 6.25 (≈ 8.08 µM) | 12.5 (≈ 16.2 µM) | 27 | 21 | 25 (≈ 32.3 µM) | 6.25 (≈ 8.08 µM) | 6.25 (≈ 8.08 µM) | 12.5 (≈ 16.2 µM) | 22 | MIC (Bacillus subtilis [21]): 12.5 µg/mL (≈ 16.2 µM); zone of inhibition at 100 µg/disc (Staphylococcus aureus [22]): 26 mm; zone of inhibition at 100 µg/disc (Bacillus subtilis [23]): 23 mm; zone of inhibition at 100 µg/disc (Candida albicans [24]): 27 mm
